Measured values reported in article PMC10821124, “Dimeric 3,5-Bis(benzylidene)-4-piperidones: Tumor-Selective Cytotoxicity and Structure-Activity Relationships” (Medicines, 2024).
“Also recorded” adds a separate entry of the source.

Assays:
[1] = test system: human promyelocytic leukemia HL-60 cells; assay: Cytotoxicity, MTT method, HL-60 cells; type: cell-based; conditions: for CC50: Homo sapiens, HL-60, 48 h, MTT, mean ± SD, read-out: CC50 HL-60; for SI (selectivity index) HL-60: average CC50 non-malignant cells / CC50 HL-60
Protocol: (§1) Human promyelocytic leukemia [HL-60 (RCB3683)] (purchased from Riken Cell Bank, Tsukuba, Japan) was cultured at 37 °C in RPMI1640 medium (Fujifilm Wako Pure Chemical Co., Osaka, Japan) supplemented with 10% heat (56 °C, 30 min) inactivated FBS (Sigma-Aldrich Inc. St. Louis, MO, USA), 100 U/mL penicillin G, and 100 µg/mL streptomycin sulfate in a humidified 5% CO2 incubator (MCO-170 AICUVD-P, Panasonic Healthcare Co., Ltd., Gunma, Japan). Human oral squamous cell carcinoma (OSCC) cell lines derived from tongue [HSC-2 (RCB1945), HSC-3 (RCB1975), HSC-4 (RCB1902)] (Riken Cell Bank), and human normal oral cells (gingival fibroblasts, HGF; pulp cell, HPC; periodontal ligament fibroblast, HPLF), established from the first premolar extracted tooth in the lower jaw and periodontal tissues of a child, according to the guidelines of Meikai University Ethic Committee (No. A0808), were cultured in DMEM medium (Fujifilm Wako Pure Chemical Co.) supplemented with 10% FBS and antibiotics. The compounds in Series 2–4 were evaluated against HL-60, HSC-2, HSC-3, HSC-4, HGF, HPC, and HPLF cells based on a literature procedure, as described previously. In brief, near confluent cells were incubated in triplicate for 48 h at 37 °C with different concentrations ([…], 6.3, 12.5, 25, 50, 100 µM) of the compounds; then, viable cell numbers were measured using the MTT method. From the dose–response curve, a 50% cytotoxic concentration (CC50) was determined. All samples were dissolved in dimethylsulfoxide (DMSO). The toxicity of DMSO alone was calculated and subtracted. The CC50 values were determined from dose–response curves.

[2] = Cytotoxicity, MTT method, HPC non-malignant cells; type: cell-based, human; conditions: human, pulp cells (HPC), non-malignant, mean ± SD
Protocol: as §1

[3] = Cytotoxicity, MTT method, HGF non-malignant cells; type: cell-based, human; conditions: human, gingival fibroblasts (HGF), non-malignant, mean ± SD
Protocol: as §1

[4] = test system: human oral squamous cell carcinoma HSC-4 cells; assay: Cytotoxicity, MTT method, HSC-4 cells; type: cell-based; conditions: for CC50: Homo sapiens, HSC-4, 48 h, MTT, mean ± SD, read-out: CC50 HSC-4; for SI (selectivity index) HSC-4: average CC50 non-malignant cells / CC50 HSC-4
Protocol: as §1

[5] = test system: human tumour cell lines HL-60, HSC-2, HSC-3, HSC-4; assay: Cytotoxicity, average over the four human tumour cell lines; type: cell-based; conditions: for CC50: Homo sapiens, average of HL-60, HSC-2, HSC-3, HSC-4, read-out: AVE. CC50, human tumour cell lines; for AVE SI: average of the four SI values
Protocol: as §1

[6] = Cytotoxicity, average over the three human normal cells; type: cell-based; conditions: human, average of HGF, HPC, HPLF; read-out: AVE CC50, human normal cells
Protocol: as §1

[7] = test system: human normal cells HGF, HPC, HPLF; assay: as above; type: cell-based; conditions: average of HGF, read-out: AVE CC50, human normal cells
Protocol: as §1

[8] = test system: human oral squamous cell carcinoma HSC-3 cells; assay: Cytotoxicity, MTT method, HSC-3 cells; type: cell-based; conditions: for CC50: Homo sapiens, HSC-3, 48 h, MTT, mean ± SD, read-out: CC50 HSC-3; for SI (selectivity index) HSC-3: average CC50 non-malignant cells / CC50 HSC-3
Protocol: as §1

[9] = Cytotoxicity, MTT method, HPLF non-malignant cells; type: cell-based, human; conditions: human, periodontal ligament fibroblasts (HPLF), non-malignant, mean ± SD
Protocol: as §1

[10] = test system: human oral squamous cell carcinoma HSC-2 cells; assay: Cytotoxicity, MTT method, HSC-2 cells; type: cell-based; conditions: for CC50: Homo sapiens, HSC-2, 48 h, MTT, mean ± SD, read-out: CC50 HSC-2; for SI (selectivity index) HSC-2: average CC50 non-malignant cells / CC50 HSC-2
Protocol: as §1

[11] = test system: HCT116 cells; assay: Mitochondrial membrane potential determination in HCT116 cells; type: cell-based, human; conditions: 48 h, tetramethylrhodamine ethyl ester
Protocol: The determination of the IC50 values of 3b, 3c, and 5-FU on the mitochondrial membrane potential in HCT 116 cells was undertaken using a literature procedure. In brief, the cells were incubated at 37 °C in an atmosphere of 5% carbon dioxide for 24 h. The compounds were dissolved in DMSO, added to the cells, and incubated for 48 h. Then, […], and 2,4-dinitrophenol (DNP) were added to the cells, which were incubated for 0.5 h. After the addition of tetramethylrhodamine ethyl ester, the fluorescence of the cells was determined using a plate reader.

[12] = test system: HSC-2 cells; assay: Cell cycle analysis of HSC-2 cells; type: cell-based, human; conditions: 0.5 µM, 24 h
Protocol: The effect of 3b (0.5 µM) and 3c (0.5 µM) on the phase distribution of HSC-2 cells after 24 h of incubation was determined using the protocol of a manufacturer (BD Pharmingen, BD BioSciences, San Jose, CA, USA). In brief, treated and untreated cells were suspended at a density of ~1 × 10^6 cells/mL in cooled phosphate-buffered saline (PBS) without calcium and magnesium ions and fixed with 70% ethanol overnight at −20 °C. The cells were washed with cooled PBS and re-suspended in a propidium iodide/RNase staining buffer in the dark at room temperature for 0.25 h. Both acquisition and analysis were performed using EPICS ALTRA (Beckman Coulter, Brea, CA, USA) and EXPO 32 software.

[13] = test system: HCT116 cells; assay: Reactive oxygen species determination in HCT116 cells; type: cell-based, human
Protocol: The determination of the effects of 3b, 3c, and 5-FU on the generation of reactive oxygen species in HCT 116 cells was accomplished using a literature procedure. In brief, the cells were incubated at 37 °C in an atmosphere of 5% carbon dioxide for 24 h. Subsequently, solutions of the compounds in DMSO were added to the cells, which were incubated for 48 h. After 2′,7′-dichlorofluorescein was added to the cells, incubation continued for another 0.5 h and the fluorescence of the cells was measured spectrophotometrically (excitation wavelength 485 nm; emission wavelength, 530 nm).

[14] = test system: bim, bax, puma, and bak; assay: Pro-apoptotic proteins bim, bax, puma, bak in HSC-2 cells; type: cell-based, human; conditions: 24 h, data not shown
Protocol: (§2) Antibodies against cleaved PARP1, bim, bax, puma, and bak were obtained from Cell Signaling Technology (Beverley, MA, USA) while the anti-actin antibody was purchased from Santa Cruz Biotechnology (Santa Cruz, CA, USA).
(§3) The HSC-2 cells were cultured for 24 h and, then, treated with 0.5 µM of 3b or 3c for 24 h. The cells were scraped and collected in lysis buffer (purchased from Cell Signaling Technology), which contained 1 mM of phenylmethanesulfonyl fluoride and one tablet of protease inhibitor cocktail (Complete, EDTA-free; Roche Diagnostics, Mannheim, Germany). The proteins were subjected to 8% SDS-polyacrylamide gel electrophoresis and, then, transferred to a polyvinylidene difluoride membrane saturated with 5% nonfat dry milk. The membranes were incubated with rabbit monoclonal anti-cleaved PARP (Cell Signaling Technology, Beverly, MA, USA; #9541, 1:1000), or beta-actin antibody (Sigma-Aldrich, St Louis, MO, USA; A5441, 1:10,000) for 1 h at room temperature. The membranes were washed with Tris-buffered saline containing 0.1% Tween 80. And, the secondary antibodies were horseradish peroxidase-conjugated goat antimouse or antirabbit, which reacted with the chemoluminescent substrate system and were exposed to X-ray films.

[15] = test system: caspases-3 and -7; assay: Caspase-Glo 3/7 assay in HSC-2 cells; type: cell-based, human; conditions: 0.5 µM, 24 h
Protocol: Both 3b (0.5 µM) and 3c (0.5 µM) were examined for their ability to activate caspases-3 and -7 in HSC cells. This determination was accomplished using the Caspase-Glo 3/7 assay (Promega Corporation, Madison, WI, USA). In brief, this assay uses a tetrapeptide sequence DEVD, which is optimized for caspase and luciferase activities. The cell lysate was incubated with the Caspase-Glo reagent (buffer and substrate) for 1 h and the luminescence was measured. The resultant luminescent signal produced by luciferase was confirmed to be proportional to the amount of caspase-3 and -7 activity.

[16] = test system: PARP1; assay: PARP1 cleavage, western blot in HSC-2 cells; type: cell-based, human; conditions: 0.5 µM, 24 h
Protocol: as §2, §3

Row | SMILES | CC50 [1] [µM] | SI (selectivity index) HL-60 [1] | CC50 at 48 h [2] [µM] | CC50 at 48 h [3] [µM] | CC50 [4] [µM] | SI (selectivity index) HSC-4 [4] | CC50 [5] [µM] | AVE SI [5] | CC50 at 48 h [6] [µM] | CC50 [7] [µM] | CC50 [8] [µM] | SI (selectivity index) HSC-3 [8] | CC50 at 48 h [9] [µM] | CC50 [10] [µM] | SI (selectivity index) HSC-2 [10] | other results
1 | O=C1/C(=C/c2ccc(Cl)cc2)CN(C(=O)C(=O)N2C/C(=C\c3ccc(Cl)cc3)C(=O)/C(=C/c3ccc(Cl)cc3)C2)C/C1=C\c1ccc(Cl)cc1 [Compound 2c] | 4.4 ± 0.17 | 16.9 | 78 ± 37 | 56 ± 6.7 | 6.7 ± 3 | 11.1 | 6.45 | 13.7 | > 50 | 74.3 | 11 ± 1.1 | 6.76 | 89 ± 9.3 | 3.7 ± 0.6 | 20.1 | –
2 | COc1ccc(/C=C2\CN(C(=O)C(=O)N3C/C(=C\c4ccc(OC)cc4)C(=O)/C(=C/c4ccc(OC)cc4)C3)C/C(=C\c3ccc(OC)cc3)C2=O)cc1 [Compound 2h] | 15 ± 0.42 | >5.45 | 63 ± 8 | 82 ± 14 | 9.6 ± 0.17 | >8.51 | 10.4 | >8.34 | > 50 | > 81.7 | 9.2 ± 4.7 | >8.88 | > 100 | 7.8 ± 1.3 | >10.5 | –
3 | CN(C)c1ccc(/C=C2\CN(C(=O)C(=O)N3C/C(=C\c4ccc(N(C)C)cc4)C(=O)/C(=C/c4ccc(N(C)C)cc4)C3)C/C(=C\c3ccc(N(C)C)cc3)C2=O)cc1 [Compound 2i] | > 100 | ~1.00 | > 100 | > 100 | > 100 | ~1.00 | > 100 | ~1.00 | > 50 | > 100 | > 100 | ~1.00 | > 100 | > 100 | ~1.00 | –
4 | O=C1/C(=C/c2ccc(F)cc2)CN(C(=O)CC(=O)N2C/C(=C\c3ccc(F)cc3)C(=O)/C(=C/c3ccc(F)cc3)C2)C/C1=C\c1ccc(F)cc1 [Compound 3b] | 0.028 ± 0.001 | 151 | 3.2 ± 1.1 | 3.8 ± 0.71 | 0.023 ± 0.003 | 184 | 0.04 | 133 | 4.23 | – | 0.046 ± 0.011 | 92.0 | 5.7 ± 0.67 | 0.041 ± 0.004 | 103 | Effect on mitochondrial membrane potential (MMP) [11]: huge effect on lowering the MMP; Cell cycle effect [12]: G2M arrest in the cell cycle; also recorded: causes a G2/M arrest; ROS generation, potency relative to 3c [13]: approximately twice the potency of 3c; Generation of reactive oxygen species (ROS) ([13]; 48 h, dichlorofluorescein fluorescence): cause an increase in the ROS concentrations; Effect on pro-apoptotic proteins bim, bax, puma, bak [14]: no changes in the concentrations of these proteins were observed; CC50 values in all four bioassays (range in words) ([5]; HL-60, HSC-2, HSC-3, HSC-4): double-digit nanomolar range; Induction of caspases-3 and -7 [15]: induced caspases-3 and -7; Cleavage of PARP1 [16]: causing the cleavage of PARP; also recorded: leads to the cleavage of PARP1
5 | O=C1/C(=C/c2ccc(Cl)c(Cl)c2)CN(C(=O)CC(=O)N2C/C(=C\c3ccc(Cl)c(Cl)c3)C(=O)/C(=C/c3ccc(Cl)c(Cl)c3)C2)C/C1=C\c1ccc(Cl)c(Cl)c1 [Compound 3d] | 65 ± 6.1 | >1.54 | > 100 | > 100 | 79 ± 5.5 | >1.27 | 73.3 | >1.38 | > 50 | > 100 | 76 ± 13 | >1.32 | > 100 | 73 ± 3.5 | >1.37 | –
6 | COc1cc(/C=C/C(=O)CC(=O)/C=C/c2ccc(O)c(OC)c2)ccc1O [Curcumin, reference compound] | 7.8 ± 0.58 | 5.81 | 34 ± 6.8 | 70 ± 12 | 14 ± 3.2 | 3.24 | 12 | 4.10 | 45.3 | – | 16 ± 2.7 | 2.83 | 32 ± 6.4 | 10 ± 0.81 | 4.53 | –
